Experimental data taken from ChEMBL document CHEMBL1154627, “Structure-activity relationship studies of targeting ligands against breast cancer cells” (J Med Chem, 2009).

Experiment: Binding affinity to alpha3beta1 integrin receptor in human MDA-MB-231 cells assessed as inhibition of cell binding to immobilized LXY1 peptide by cell adherence assay
Assay type: cell-based

Work on `NC(=O)C[C@@H]1NC(=O)[C@@H]2C[C@@H](O)CN2C(=O)CNC(=O)[C@H](Cc2ccc(O)c([N+](=O)[O-])c2)NC(=O)CNC(=O)[C@@H](CC(=O)O)NC(=O)[C@H](NCc2cccnc2)CSSC[C@H](C(N)=O)NC1=O` yielded an IC50 greater than 25 µM.

In the case of `NC(=O)C[C@@H]1NC(=O)[C@@H]2C[C@@H](O)CN2C(=O)CNC(=O)[C@H](Cc2ccc(O)c([N+](=O)[O-])c2)NC(=O)CNC(=O)[C@@H](CC(=O)O)NC(=O)[C@H](NCc2ccc(F)c(F)c2)CSSC[C@H](C(N)=O)NC1=O`, the IC50 is reported as greater than 25 µM.

Molecule `COc1cc(C[C@@H]2NC(=O)CNC(=O)[C@@H](CC(=O)O)NC(=O)[C@H](N)CSSC[C@H](C(N)=O)NC(=O)[C@H](CC(N)=O)NC(=O)[C@@H]3C[C@@H](O)CN3C(=O)CNC2=O)ccc1O` has an IC50 greater than 25 µM.

`NC(=O)C[C@@H]1NC(=O)[C@@H]2C[C@@H](O)CN2C(=O)CNC(=O)[C@H](Cc2ccc(O)c([N+](=O)[O-])c2)NC(=O)CNC(=O)[C@@H](CC(=O)O)NC(=O)[C@H](NC(=O)NC2CCCCC2)CSSC[C@H](C(N)=O)NC1=O` showed an IC50 greater than 25 µM.

Molecule `CC(C)NC(=O)N[C@@H]1CSSC[C@H](C(N)=O)NC(=O)[C@H](CC(N)=O)NC(=O)[C@@H]2C[C@@H](O)CN2C(=O)CNC(=O)[C@H](Cc2ccc(O)c([N+](=O)[O-])c2)NC(=O)CNC(=O)[C@@H](CC(=O)O)NC1=O` has an IC50 greater than 25 µM.

`NC(=O)C[C@@H]1NC(=O)[C@@H]2C[C@@H](O)CN2C(=O)CNC(=O)[C@H](c2ccccc2F)NC(=O)CNC(=O)[C@@H](CC(=O)O)NC(=O)[C@H](N)CSSC[C@H](C(N)=O)NC1=O` showed an IC50 greater than 25 µM.

For `NCC[C@@H]1NC(=O)[C@@H]2C[C@@H](O)CN2C(=O)CNC(=O)[C@H](Cc2ccc(O)c([N+](=O)[O-])c2)NC(=O)CNC(=O)[C@@H](CC(=O)O)NC(=O)[C@H](N)CSSC[C@H](C(N)=O)NC1=O`, the IC50 was 13.6 µM.

With `NC(=O)C[C@@H]1NC(=O)[C@@H]2C[C@@H](O)CN2C(=O)CNC(=O)[C@@H]2CCCCN2C(=O)CNC(=O)[C@@H](CC(=O)O)NC(=O)[C@H](N)CSSC[C@H](C(N)=O)NC1=O` the IC50 was 24.1 µM.

`CCCCCCN[C@@H]1CSSC[C@H](C(N)=O)NC(=O)[C@H](CC(N)=O)NC(=O)[C@@H]2C[C@@H](O)CN2C(=O)CNC(=O)[C@H](Cc2ccc(O)c([N+](=O)[O-])c2)NC(=O)CNC(=O)[C@@H](CC(=O)O)NC1=O` showed an IC50 greater than 25 µM.

`NC(=O)C[C@@H]1NC(=O)[C@@H]2C[C@@H](O)CN2C(=O)CNC(=O)[C@H](c2ccc(F)c(F)c2)NC(=O)CNC(=O)[C@@H](CC(=O)O)NC(=O)[C@H](N)CSSC[C@H](C(N)=O)NC1=O` gave an IC50 of 6.3 µM.

For `NC(=O)C[C@@H]1NC(=O)[C@@H]2C[C@@H](O)CN2C(=O)CNC(=O)[C@H](Cc2ccc(O)c([N+](=O)[O-])c2)NC(=O)CNC(=O)[C@@H](CC(=O)O)NC(=O)[C@H](N)C/C=C/C[C@H](C(N)=O)NC1=O`, the IC50 was greater than 25 µM.

In the case of `NC(=O)C[C@@H]1NC(=O)[C@@H]2C[C@@H](O)CN2C(=O)CNC(=O)[C@H](Cc2ccc(O)c([N+](=O)[O-])c2)NC(=O)CNC(=O)[C@@H](CC(=O)O)NC(=O)[C@H](NC(=O)Nc2ccc(-c3ccccc3)cc2)CSSC[C@H](C(N)=O)NC1=O`, the IC50 is reported as greater than 25 µM.

Molecule `NC(=O)C[C@@H]1NC(=O)[C@@H]2C[C@@H](O)CN2C(=O)CNC(=O)[C@H](c2ccc(C(F)(F)F)cc2)NC(=O)CNC(=O)[C@@H](CC(=O)O)NC(=O)[C@H](N)CSSC[C@H](C(N)=O)NC1=O` has an IC50 greater than 25 µM.

In the case of `NC(=O)C[C@@H]1NC(=O)[C@@H]2C[C@@H](O)CN2C(=O)CNC(=O)[C@H](Cc2ccc(O)c([N+](=O)[O-])c2)NC(=O)CNC(=O)[C@@H](CC(=O)O)NC(=O)[C@H](NCc2cccc([N+](=O)[O-])c2)CSSC[C@H](C(N)=O)NC1=O`, the IC50 is reported as greater than 25 µM.

For `NC(=O)C[C@@H]1NC(=O)[C@@H]2C[C@@H](O)CN2C(=O)CNC(=O)[C@H](Cc2ccc(O)c([N+](=O)[O-])c2)NC(=O)CNC(=O)[C@@H](CC(=O)O)NC(=O)[C@H](NCC2CCCCC2)CSSC[C@H](C(N)=O)NC1=O`, the IC50 was greater than 25 µM.

With `NC(=O)C[C@@H]1NC(=O)[C@@H]2C[C@@H](O)CN2C(=O)CNC(=O)[C@H](Cc2ccc(O)c([N+](=O)[O-])c2)NC(=O)CNC(=O)[C@@H](CC(=O)O)NC(=O)[C@H](NCc2ccc(C(F)(F)F)cc2)CSSC[C@H](C(N)=O)NC1=O` the IC50 was greater than 25 µM.

`COc1ccc(NC(=O)N[C@@H]2CSSC[C@H](C(N)=O)NC(=O)[C@H](CC(N)=O)NC(=O)[C@@H]3C[C@@H](O)CN3C(=O)CNC(=O)[C@H](Cc3ccc(O)c([N+](=O)[O-])c3)NC(=O)CNC(=O)[C@@H](CC(=O)O)NC2=O)cc1OC` gave an IC50 greater than 25 µM.

For `NC(=O)C[C@@H]1NC(=O)[C@@H]2C[C@@H](O)CN2C(=O)CNC(=O)[C@H](c2cccc(F)c2)NC(=O)CNC(=O)[C@@H](CC(=O)O)NC(=O)[C@H](N)CSSC[C@H](C(N)=O)NC1=O`, the IC50 was 11.3 µM.

`NC(=O)C[C@@H]1NC(=O)[C@@H]2C[C@@H](O)CN2C(=O)CNC(=O)[C@H](c2ccccc2[N+](=O)[O-])NC(=O)CNC(=O)[C@@H](CC(=O)O)NC(=O)[C@H](N)CSSC[C@H](C(N)=O)NC1=O` showed an IC50 of 19.6 µM.

Molecule `NC(=O)C[C@@H]1NC(=O)[C@@H]2C[C@@H](O)CN2C(=O)CNC(=O)[C@@H]2CCN2C(=O)CNC(=O)[C@@H](CC(=O)O)NC(=O)[C@H](N)CSSC[C@H](C(N)=O)NC1=O` has an IC50 of 21.4 µM.

Work on `NC(=O)C[C@@H]1NC(=O)[C@@H]2C[C@@H](O)CN2C(=O)CNC(=O)[C@@H]2SCCN2C(=O)CNC(=O)[C@@H](CC(=O)O)NC(=O)[C@H](N)CSSC[C@H](C(N)=O)NC1=O` yielded an IC50 of 10.5 µM.

`NC(=O)C[C@@H]1NC(=O)[C@@H]2C[C@@H](O)CN2C(=O)CNC(=O)[C@H](c2c(F)c(F)c(F)c(F)c2F)NC(=O)CNC(=O)[C@@H](CC(=O)O)NC(=O)[C@H](N)CSSC[C@H](C(N)=O)NC1=O` showed an IC50 of 11.7 µM.

Molecule `NC(=O)C[C@@H]1NC(=O)[C@@H]2C[C@@H](O)CN2C(=O)CNC(=O)[C@H](Cc2ccc(O)c([N+](=O)[O-])c2)NC(=O)CNC(=O)[C@@H](CC(=O)O)NC(=O)[C@H](NC(=O)CCc2ccccc2)CSSC[C@H](C(N)=O)NC1=O` has an IC50 greater than 25 µM.

Work on `NC(=O)C[C@@H]1NC(=O)[C@@H]2C[C@@H](O)CN2C(=O)CNC(=O)[C@@H]2C[C@@H](c3ccccc3)CN2C(=O)CNC(=O)[C@@H](CC(=O)O)NC(=O)[C@H](N)CSSC[C@H](C(N)=O)NC1=O` yielded an IC50 greater than 25 µM.

With `NC(=O)C[C@@H]1NC(=O)[C@@H]2C[C@@H](O)CN2C(=O)CNC(=O)[C@@H]2C[C@@H](F)CN2C(=O)CNC(=O)[C@@H](CC(=O)O)NC(=O)[C@H](N)CSSC[C@H](C(N)=O)NC1=O` the IC50 was 18.5 µM.

In the case of `NC(=O)C[C@@H]1NC(=O)[C@@H]2C[C@@H](O)CN2C(=O)CNC(=O)[C@H](Cc2ccc(O)c([N+](=O)[O-])c2)NC(=O)CNC(=O)[C@@H](CC(=O)O)NC(=O)[C@H](NC(=O)Nc2ccc(Cl)cc2)CSSC[C@H](C(N)=O)NC1=O`, the IC50 is reported as greater than 25 µM.

In the case of `NC(=O)C[C@@H]1NC(=O)[C@@H]2C[C@@H](O)CN2C(=O)CNC(=O)[C@H](c2cc(F)c(F)c(F)c2)NC(=O)CNC(=O)[C@@H](CC(=O)O)NC(=O)[C@H](N)CSSC[C@H](C(N)=O)NC1=O`, the IC50 is reported as 5.9 µM.

`NC(=O)C[C@@H]1NC(=O)[C@@H]2C[C@@H](O)CN2C(=O)CNC(=O)[C@H](Cc2cc([N+](=O)[O-])c(O)c([N+](=O)[O-])c2)NC(=O)CNC(=O)[C@@H](CC(=O)O)NC(=O)[C@H](N)CSSC[C@H](C(N)=O)NC1=O` showed an IC50 of 11.9 µM.

Work on `NC(=O)C[C@@H]1NC(=O)[C@@H]2C[C@@H](O)CN2C(=O)CNC(=O)[C@H](Cc2ccc(O)c([N+](=O)[O-])c2)NC(=O)CNC(=O)[C@@H](CC(=O)O)NC(=O)[C@H](NC(=O)Nc2ccccc2)CSSC[C@H](C(N)=O)NC1=O` yielded an IC50 greater than 25 µM.
